# Measurements published in patent publication EP0006845A1, “Pharmaceutical composition comprising a 5-aroyl-1-C1-5 alkyl-pyrrole-2-acetic acid compound and acetaminophen or acetylsalicylic acid” (McNeilab, Inc., priority 1978, dated 1980).
# What was measured:
# adjuvant arthritic rats [1] = assay: adjuvant arthritis test, evaluation of paw volume of the non-injected hind paw; type: in vivo, female Wistar, Lewis rats
# Text: (§1) The efficacy of the novel combination of this invention in inhibiting inflammation and osteogenic degeneration is particularly seen in the adjuvant arthritis test. […] The adjuvant arthritis test, a test in which adjuvant arthritis which results both in inflammation and osteogenic changes is induced by Mycobacterium butvricum and in which the effect of the test compounds on each effect can be Determined, is considered to be .most useful for evaluation of compounds which may be suitable for the treatment of rheumatoid arthritis and other arthritic diseases. The test procedure, in which the effect on inflammation is determined by paw volume changes and the effect on osteogenic changes is determined by microscopic observation, is described by Wong et al, in J. Pharmacol.Exp.Ther. 185, 127-138, 1973, and is employed in the present determination of the potentiation of the antiarthritic properties of 5-aroyl-l-loweralkyl-pyrrole-2-acetic acid derivatives by aspirin or acetaminophen.
# (§2) Briefly, in this procedure, adjuvant arthritis is induced in female Wistar, Lewis rats (Charles River Breeding Laboratories. Inc., Wiimington, Mass.) weighing 160-190 gm by a single subcutaneous injection of 0.75 mg Mycobacterium butyricum (Difco) into the left hind paw. The non-injected hind paw remains a normal size for the first seven days. Swelling begins to appear in the non-injected paw of the first rats on Day 8. Using the paw volume determination technique (a technique in which rat paws are dippedin mercury to the hairline and the volume of displacement determined by a modified Van Arman mercury displacement method as described in the aforementioned paper of Wong et al), the time progress curve of volume changes in the non-injected (contralateral) paw is followed. […] The mean onset time for 100 rats is found to be 11.6 days with a standard deviation of 1.9 days and the frequency of onset time values distributed normally between Days 8 and 19. Thus, determinations of antiarthritic activity are made in the period Day 11 to Day 28.
# (§3) For determination of anti-inflammatory properties two different evaluations are made: (a) the evaluation of paw volume during the Phase II and Phase III periods and, (b) the evaluation of osteogenic (bone) degenration during the Phase IV period.
# For evaluation of paw volume, adjuvant arthritic rats with early but significant signs of arthritis in the contralateral paw are selected on Day 11 and randomly assigned to the various groups of 10 animals in each group. All test -animals are dosed-daily (per os) with the test compound, preferably as sodium salt, or in saline for 17 days (Days 11 to 27 inclusive). Control animals are dosed with an equivalent volume of saline. The paw volumes of the non-injected paws are determined initially on Day 11 and again on Days 15, 18, 22, 25, and 28. The paw volumes are then compared with normal paw volumes of adjuvant arthitic rats previously determined from a reference curve relating normal paw volume to body weight. The volume of each individual rat which is greater than the normal volume is utilized in the analysis of the data. Values for drug treated animals are expressed as a percent inhibition of the paw volume change relative to the mean value for saline controls. Data is evaluated statistically and ED50 values with 95 percent confidence limits are calculated. The method for statistical analysis is described in detail in the aforementioned paper of Wong et al. The term "ED50" refers to the dose of drug required to produce 50 percent antagonism of the paw volume changes observed in the saline treated adjuvant arthritis controls. Suppression of paw volume changes reflects anti-inflammatory and antiarthritic activity of a test drug.
# adjuvant arthritic rats [2] = assay: adjuvant arthritis test, evaluation of bone degeneration (osteogenic changes) in the non-injected hind paw; type: in vivo, female Wistar, Lewis rats; settings: Rattus norvegicus
# Text: as §1, §2, §3
# For evaluation of bone degenerations, normal and adjuvant arthritic rats are sacrificed under C02, after the paw volume measurements have been completed on Day 28. The hind legs are removed above the knees and skinned and the soft tissues dissected away with care to avoid injury to bone and articular structures. The leg bones are then immersed in 2 percent potassium hydroxide solution for approximately four to five days until the remaining soft tissues becomes properly macerated and/or transparent, and the bones are fully visible. The leg bones are stained with Alizarin Red (0.01 percent in 2 percent KOH) for eight hours, and then processed through increasing concentrations of glycerol in water (20, 40, 60, 80 and 100 percent) for purposes of clearing the tissues for microscopic observation. The distal end of the tibiae, the tarsals, metatarsals, phalanges, and sesamoids are evaluated under a Stereozoom Microscope (a special type of dissecting microscope, product of Bausch and Lomb).
# Osteogenic changes for each bone (in 31 bone categories) in the non-injected hind paw are graded on a scale of from 0 to 10 (increasing numerical value corresponding to increasing severity of bone degeneration). A total bone degeneration score is obtained (maximum score/paw = 310 points) and then expressed as a percent score. The mean percent score (95 percent confidence limits) for saline control groups from 26 experiments (184 animals) is found to be 53.4 (50.9-55.9). Percent score values for drug treated animals are expressed as a percent inhibition relative to the mean for the saline control group. Data is evaluated statistically and ED50 values with 95 percent confidence limits are calculated.
smiles,measurement,setting,value
"Cc1ccc(C(=O)c2ccc(CC(=O)O)n2C)cc1 [Tolmetin, 1-methyl-5-p-toluoyl-pyrrole-2-acetic acid]",ED50,"adjuvant arthritic rats [1]; Rattus norvegicus, 672 h, Table IV, ED50 of tolmetin without Aspirin, Day 28, read-out: ED50",32 mg/kg
same,inhibition at 5.6 mg/kg,"adjuvant arthritic rats [1]; Rattus norvegicus, 672 h, Tolmetin 5.6 mg/kg/day alone, Day 28, read-out: Percent Inhibition ± S.E. (Day 28)",30.5 ± 5.1%
same,inhibition at 11.1 mg/kg,"adjuvant arthritic rats [1]; Rattus norvegicus, 672 h, Tolmetin 11.1 mg/kg/day alone, Day 28, read-out: Percent Inhibition ± S.E. (Day 28)",34.5 ± 8%
same,inhibition at 16.7 mg/kg,"adjuvant arthritic rats [1]; Rattus norvegicus, 672 h, Tolmetin 16.7 mg/kg/day alone, Day 28, read-out: Percent Inhibition ± S.E. (Day 28)",58.4 ± 8.1%
same,inhibition at 33.3 mg/kg,"adjuvant arthritic rats [1]; Rattus norvegicus, 672 h, Tolmetin 33.3 mg/kg/day alone, Day 28, read-out: Percent Inhibition ± S.E. (Day 28)",50.8 ± 8.4%
same,inhibition at 50 mg/kg,"adjuvant arthritic rats [1]; Rattus norvegicus, 672 h, Tolmetin 50 mg/kg/day alone, Day 28, read-out: Percent Inhibition ± S.E. (Day 28)",62.6 ± 2.7%
same,inhibition at 100 mg/kg,"adjuvant arthritic rats [1]; Rattus norvegicus, 672 h, Tolmetin 100 mg/kg/day alone, Day 28, read-out: Percent Inhibition ± S.E. (Day 28)",66.4 ± 3.9%
same,ED50,"adjuvant arthritic rats [1]; Rattus norvegicus, Table II, tolmetin without acetaminophen, read-out: ED50 values of Tolmetin",32 mg/kg
same,inhibition at 7.5 mg/kg,"adjuvant arthritic rats [1]; Rattus norvegicus, Tolmetin 7.5 mg/kg/day alone, read-out: Percent Inhibition of Paw Volume ± S.E.",37.8 ± 8.8%
same,inhibition at 30 mg/kg,"adjuvant arthritic rats [1]; Rattus norvegicus, Tolmetin 30.0 mg/kg/day alone, read-out: Percent Inhibition of Paw Volume ± S.E.",49.3 ± 9.7%
same,inhibition at 120 mg/kg,"adjuvant arthritic rats [1]; Rattus norvegicus, Tolmetin 120.0 mg/kg/day alone, read-out: Percent Inhibition of Paw Volume ± S.E.",78.4 ± 3%
same,ED50,"adjuvant arthritic rats [1]; Rattus norvegicus, po, 360 h, drug given alone per os, Day 15, read-out: ED50 Values and 95 Percent C.L.",42.1 mg/kg
same,ED50,"adjuvant arthritic rats [1]; Rattus norvegicus, po, 432 h, drug given alone per os, Day 18, read-out: ED50 Values and 95 Percent C.L.",40.6 mg/kg
same,ED50,"adjuvant arthritic rats [1]; Rattus norvegicus, po, 528 h, drug given alone per os, Day 22, read-out: ED50 Values and 95 Percent C.L.",32.4 mg/kg
same,ED50,"adjuvant arthritic rats [1]; Rattus norvegicus, po, 600 h, drug given alone per os, Day 25, read-out: ED50 Values and 95 Percent C.L.",29.5 mg/kg
same,ED50,"adjuvant arthritic rats [1]; Rattus norvegicus, po, 672 h, drug given alone per os, Day 28, read-out: ED50 Values and 95 Percent C.L.",26.4 mg/kg
same,ED50 Values and 95 Percent C.L.,"adjuvant arthritic rats [1]; drug given alone per os, Day 28, 40320 min",26.4 (22.3 - 29.6) mg/kg/day
same,inhibition at 7.5 mg/kg,"adjuvant arthritic rats [2]; Tolmetin 7.5 mg/kg/day alone, read-out: Percent Inhibition of Bone Degeneration ± S.E.",18.6 ± 6.9%
same,inhibition at 30 mg/kg,"adjuvant arthritic rats [2]; Tolmetin 30.0 mg/kg/day alone, read-out: Percent Inhibition of Bone Degeneration ± S.E.",26.3 ± 3.7%
same,inhibition at 120 mg/kg,"adjuvant arthritic rats [2]; Tolmetin 120.0 mg/kg/day alone, read-out: Percent Inhibition of Bone Degeneration ± S.E.",51.7 ± 6.4%
same,inhibition at 5.6 mg/kg,"adjuvant arthritic rats [2]; bone degeneration, Tolmetin 5.6 mg/kg/day alone, read-out: Percent Inhibition ± S. E.",26.6 ± 7%
same,inhibition at 11.1 mg/kg,"adjuvant arthritic rats [2]; bone degeneration, Tolmetin 11.1 mg/kg/day alone, read-out: Percent Inhibition ± S. E.",28.7 ± 7.7%
same,inhibition at 16.7 mg/kg,"adjuvant arthritic rats [2]; bone degeneration, Tolmetin 16.7 mg/kg/day alone, read-out: Percent Inhibition ± S. E.",27.5 ± 4.9%
same,inhibition at 33.3 mg/kg,"adjuvant arthritic rats [2]; bone degeneration, Tolmetin 33.3 mg/kg/day alone, read-out: Percent Inhibition ± S. E.",33.4 ± 3.9%
same,inhibition at 50 mg/kg,"adjuvant arthritic rats [2]; bone degeneration, Tolmetin 50.0 mg/kg/day alone, read-out: Percent Inhibition ± S. E.",34.9 ± 2.7%
same,inhibition at 100 mg/kg,"adjuvant arthritic rats [2]; bone degeneration, Tolmetin 100 mg/kg/day alone, read-out: Percent Inhibition ± S. E.",54.2 ± 1.9%
same,ED50,"adjuvant arthritic rats [2]; Table III, ED50 of tolmetin without acetaminophen, read-out: ED50 values",110 mg/kg
same,ED50,"adjuvant arthritic rats [2]; Table V, ED50 of tolmetin without Aspirin, read-out: ED50",89.7 mg/kg
same,ED50,"adjuvant arthritic rats [2]; drug alone, suppression of osteogenic changes, data from several experiments pooled, read-out: ED50 and 95 percent C.L.",110 mg/kg
